Data taken from PubChem BioAssay (NCI).
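48-hour exposure; five concentrations; linearly interpolated endpoints. GI50: concentration for 50% inhibition of growth. At the TGI there is no net growth.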

Assays:
Assay in all cases: NCI tumour cell line growth inhibition, 48 h
OVCAR-8 ovarian = tested on: OVCAR-8 ovarian
SK-MEL-2 melanoma = tested on: SK-MEL-2 melanoma
BT-549 breast = tested on: BT-549 breast
NCI-H23 lung = tested on: NCI-H23 lung
SW-620 colon = tested on: SW-620 colon
NCI-H460 lung = tested on: NCI-H460 lung
DU-145 prostate = tested on: DU-145 prostate
SF-539 CNS = tested on: SF-539 CNS
786-0 renal = tested on: 786-0 renal
SK-MEL-28 melanoma = tested on: SK-MEL-28 melanoma
HOP-92 NSCLC = tested on: HOP-92 NSCLC
EKVX NSCLC = tested on: EKVX NSCLC
HCT-116 colon = tested on: HCT-116 colon
MCF7 breast = tested on: MCF7 breast
MDA-MB-231 breast = tested on: MDA-MB-231 breast
U251 CNS = tested on: U251 CNS
NCI-H226 lung = tested on: NCI-H226 lung
TK-10 renal = tested on: TK-10 renal
RXF 393 renal = tested on: RXF 393 renal
CAKI-1 renal = tested on: CAKI-1 renal
A549 NSCLC = tested on: A549 NSCLC
UACC-257 melanoma = tested on: UACC-257 melanoma
OVCAR-4 ovarian = tested on: OVCAR-4 ovarian
SN12C renal = tested on: SN12C renal
HCC-2998 colon = tested on: HCC-2998 colon
HOP-62 NSCLC = tested on: HOP-62 NSCLC
SK-OV-3 ovarian = tested on: SK-OV-3 ovarian
NCI-H522 lung = tested on: NCI-H522 lung
MDA-MB-435 = tested on: MDA-MB-435
UACC-62 melanoma = tested on: UACC-62 melanoma
OVCAR-3 ovarian = tested on: OVCAR-3 ovarian
CCRF-CEM leukemia = tested on: CCRF-CEM leukemia
HT29 colon = tested on: HT29 colon
COLO 205 colon = tested on: COLO 205 colon
SR leukemia = tested on: SR leukemia
KM12 colon = tested on: KM12 colon
OVCAR-5 ovarian = tested on: OVCAR-5 ovarian
UO-31 renal = tested on: UO-31 renal
SF-268 CNS = tested on: SF-268 CNS
SNB-75 CNS = tested on: SNB-75 CNS
T-47D breast = tested on: T-47D breast
SF-295 CNS = tested on: SF-295 CNS
RPMI-8226 leukemia = tested on: RPMI-8226 leukemia
PC-3 prostate = tested on: PC-3 prostate
NCI/ADR-RES ovarian = tested on: NCI/ADR-RES ovarian
K-562 leukemia = tested on: K-562 leukemia
SNB-19 CNS = tested on: SNB-19 CNS
ACHN renal = tested on: ACHN renal
SK-MEL-5 melanoma = tested on: SK-MEL-5 melanoma
LOX IMVI melanoma = tested on: LOX IMVI melanoma
M14 melanoma = tested on: M14 melanoma
MOLT-4 leukemia = tested on: MOLT-4 leukemia
HL-60(TB) leukemia = tested on: HL-60(TB) leukemia

`CCOC(=O)/N=c1\ssc(Cl)c1Cl` was tested. Which GI50 (OVCAR-8 ovarian) did it give?
Its GI50 is 19.7 µM.

And the TGI (OVCAR-8 ovarian)?
The TGI was 55.1 µM.

What about the GI50 (SK-MEL-2 melanoma) of the same compound?
Its GI50 is 12.1 µM.

What about the TGI (SK-MEL-2 melanoma) of the same compound?
The TGI was 60.4 µM.

What about the GI50 (BT-549 breast) of the same compound?
The GI50 was 2.77 µM.

What about the TGI (BT-549 breast) of the same compound?
The TGI was 7.21 µM.

And the GI50 (NCI-H23 lung)?
Its GI50 is 3.25 µM.

What about the TGI (NCI-H23 lung) of the same compound?
The TGI was 11.3 µM.

And the GI50 (SW-620 colon)?
Its GI50 is 0.599 µM.

What about the TGI (SW-620 colon) of the same compound?
The TGI was 14.7 µM.

And the GI50 (NCI-H460 lung)?
The GI50 was 21.3 µM.

What about the TGI (NCI-H460 lung) of the same compound?
Its TGI is 54.3 µM.

And the GI50 (DU-145 prostate)?
The GI50 was 4.72 µM.

And the TGI (DU-145 prostate)?
Its TGI is 19.4 µM.

What about the GI50 (SF-539 CNS) of the same compound?
Its GI50 is 2.87 µM.

And the TGI (SF-539 CNS)?
Its TGI is 8.97 µM.

And the GI50 (786-0 renal)?
The GI50 was 12.8 µM.

And the TGI (786-0 renal)?
Its TGI is greater than 100 µM.

What about the GI50 (SK-MEL-28 melanoma) of the same compound?
The GI50 was 3.9 µM.

What about the TGI (SK-MEL-28 melanoma) of the same compound?
The TGI was 27.1 µM.

And the GI50 (HOP-92 NSCLC)?
The GI50 was 5.66 µM.

What about the TGI (HOP-92 NSCLC) of the same compound?
Its TGI is greater than 100 µM.

And the GI50 (EKVX NSCLC)?
The GI50 was 19.9 µM.

What about the TGI (EKVX NSCLC) of the same compound?
Its TGI is 42.7 µM.

What about the GI50 (HCT-116 colon) of the same compound?
The GI50 was 3.35 µM.

And the TGI (HCT-116 colon)?
Its TGI is greater than 100 µM.

What about the GI50 (MCF7 breast) of the same compound?
Its GI50 is 3.54 µM.

And the TGI (MCF7 breast)?
The TGI was 16.8 µM.

And the GI50 (MDA-MB-231 breast)?
Its GI50 is 6.95 µM.

What about the TGI (MDA-MB-231 breast) of the same compound?
Its TGI is 28.7 µM.

What about the GI50 (U251 CNS) of the same compound?
The GI50 was 3.34 µM.

What about the TGI (U251 CNS) of the same compound?
Its TGI is 13.8 µM.

And the GI50 (NCI-H226 lung)?
The GI50 was 27.8 µM.

What about the TGI (NCI-H226 lung) of the same compound?
The TGI was greater than 100 µM.

What about the GI50 (TK-10 renal) of the same compound?
Its GI50 is 4.72 µM.

What about the TGI (TK-10 renal) of the same compound?
Its TGI is 18.5 µM.

What about the GI50 (RXF 393 renal) of the same compound?
The GI50 was 3.01 µM.

And the TGI (RXF 393 renal)?
The TGI was 10.6 µM.

What about the GI50 (CAKI-1 renal) of the same compound?
The GI50 was 14.9 µM.

And the TGI (CAKI-1 renal)?
Its TGI is 29.4 µM.

What about the GI50 (A549 NSCLC) of the same compound?
The GI50 was 24.1 µM.

What about the TGI (A549 NSCLC) of the same compound?
Its TGI is 73.8 µM.

And the GI50 (UACC-257 melanoma)?
Its GI50 is 15.3 µM.

And the TGI (UACC-257 melanoma)?
Its TGI is 30.7 µM.

And the GI50 (OVCAR-4 ovarian)?
Its GI50 is 35.5 µM.

What about the TGI (OVCAR-4 ovarian) of the same compound?
Its TGI is greater than 100 µM.

What about the GI50 (SN12C renal) of the same compound?
The GI50 was 6.7 µM.

What about the TGI (SN12C renal) of the same compound?
The TGI was 25.8 µM.

What about the GI50 (HCC-2998 colon) of the same compound?
Its GI50 is 2.83 µM.

And the TGI (HCC-2998 colon)?
The TGI was 5.39 µM.

What about the GI50 (HOP-62 NSCLC) of the same compound?
Its GI50 is 43.7 µM.

And the TGI (HOP-62 NSCLC)?
The TGI was greater than 100 µM.

And the GI50 (SK-OV-3 ovarian)?
Its GI50 is 20.6 µM.

And the TGI (SK-OV-3 ovarian)?
The TGI was 45.6 µM.

And the GI50 (NCI-H522 lung)?
Its GI50 is 3.87 µM.

What about the TGI (NCI-H522 lung) of the same compound?
Its TGI is 95.9 µM.

And the GI50 (MDA-MB-435)?
The GI50 was 15.2 µM.

And the TGI (MDA-MB-435)?
Its TGI is 30.8 µM.

And the GI50 (UACC-62 melanoma)?
The GI50 was 14 µM.

And the TGI (UACC-62 melanoma)?
Its TGI is 29.6 µM.

And the GI50 (OVCAR-3 ovarian)?
Its GI50 is 6.53 µM.

What about the TGI (OVCAR-3 ovarian) of the same compound?
The TGI was 20.9 µM.

And the GI50 (CCRF-CEM leukemia)?
The GI50 was 0.646 µM.

And the TGI (CCRF-CEM leukemia)?
Its TGI is greater than 100 µM.

What about the GI50 (HT29 colon) of the same compound?
Its GI50 is 4.43 µM.

And the TGI (HT29 colon)?
The TGI was greater than 100 µM.

What about the GI50 (COLO 205 colon) of the same compound?
Its GI50 is 19 µM.

What about the TGI (COLO 205 colon) of the same compound?
The TGI was 44.8 µM.

What about the GI50 (SR leukemia) of the same compound?
The GI50 was 0.414 µM.

And the TGI (SR leukemia)?
Its TGI is greater than 100 µM.

What about the GI50 (KM12 colon) of the same compound?
Its GI50 is 16.7 µM.

What about the TGI (KM12 colon) of the same compound?
The TGI was 35.9 µM.

What about the GI50 (OVCAR-5 ovarian) of the same compound?
The GI50 was 4.86 µM.

And the TGI (OVCAR-5 ovarian)?
The TGI was 28.1 µM.

What about the GI50 (UO-31 renal) of the same compound?
Its GI50 is 4.97 µM.

And the TGI (UO-31 renal)?
Its TGI is greater than 100 µM.

What about the GI50 (SF-268 CNS) of the same compound?
The GI50 was 17.4 µM.

And the TGI (SF-268 CNS)?
The TGI was 41.6 µM.

What about the GI50 (SNB-75 CNS) of the same compound?
The GI50 was 30.6 µM.

And the TGI (SNB-75 CNS)?
The TGI was 87.7 µM.

And the GI50 (T-47D breast)?
The GI50 was 17.2 µM.

And the TGI (T-47D breast)?
Its TGI is 42.6 µM.

And the GI50 (SF-295 CNS)?
Its GI50 is 16.7 µM.

And the TGI (SF-295 CNS)?
Its TGI is 33.2 µM.

And the GI50 (RPMI-8226 leukemia)?
Its GI50 is 3.52 µM.

What about the TGI (RPMI-8226 leukemia) of the same compound?
Its TGI is greater than 100 µM.

And the GI50 (PC-3 prostate)?
The GI50 was 15.8 µM.

What about the TGI (PC-3 prostate) of the same compound?
Its TGI is 36 µM.

What about the GI50 (NCI/ADR-RES ovarian) of the same compound?
The GI50 was 4.11 µM.

What about the TGI (NCI/ADR-RES ovarian) of the same compound?
The TGI was greater than 100 µM.

And the GI50 (K-562 leukemia)?
The GI50 was 1.93 µM.

And the TGI (K-562 leukemia)?
The TGI was greater than 100 µM.

And the GI50 (SNB-19 CNS)?
Its GI50 is 23.7 µM.

What about the TGI (SNB-19 CNS) of the same compound?
Its TGI is 56.9 µM.

And the GI50 (ACHN renal)?
Its GI50 is 1.95 µM.

What about the TGI (ACHN renal) of the same compound?
Its TGI is 4.37 µM.

What about the GI50 (SK-MEL-5 melanoma) of the same compound?
Its GI50 is 3.9 µM.

What about the TGI (SK-MEL-5 melanoma) of the same compound?
Its TGI is 19.1 µM.

What about the GI50 (LOX IMVI melanoma) of the same compound?
Its GI50 is 1.9 µM.

What about the TGI (LOX IMVI melanoma) of the same compound?
Its TGI is 3.99 µM.

What about the GI50 (M14 melanoma) of the same compound?
Its GI50 is 7.44 µM.

What about the TGI (M14 melanoma) of the same compound?
The TGI was greater than 100 µM.

And the GI50 (MOLT-4 leukemia)?
The GI50 was 3.06 µM.

And the TGI (MOLT-4 leukemia)?
The TGI was greater than 100 µM.

What about the GI50 (HL-60(TB) leukemia) of the same compound?
The GI50 was 6.41 µM.

What about the TGI (HL-60(TB) leukemia) of the same compound?
The TGI was greater than 100 µM.
